Data from BindingDB's records for patent US11117900 (Vertex Pharmaceuticals, 2021).

Biological target: Serine/threonine-protein kinase ATR (Homo sapiens, UniProt Q13535)
Experiment: Inhibition Assay
Protocol: Compounds were screened for their ability to inhibit ATR kinase using a radioactive-phosphate incorporation assay. Assays were carried out in a mixture of 50 mM Tris/HCl (pH 7.5), 10 mM MgCl2 and 1 mM DTT. Final substrate concentrations were 10 μM [γ-33P]ATP (3 mCi 33P ATP/mmol ATP, Perkin Elmer) and 800 μM target peptide ([…]) (SEQ ID NO:1).Assays were carried out at 25° C. in the presence of 5 nM full-length ATR. An assay stock buffer solution was prepared containing all of the reagents listed above, with the exception of ATP and the test compound of interest. 13.5 μL of the stock solution was placed in a 96 well plate followed by addition of 2 μL of DMSO stock containing serial dilutions of the test compound (typically starting from a final concentration of 15 μM with 3-fold serial dilutions) in duplicate (final DMSO concentration 7%). The plate was pre-incubated for 10 minutes at 25° C. and the reaction initiated by addition of 15 μL [γ-33P]ATP (final concentration 10 μM).The reaction was stopped after 24 hours by the addition of […] containing 2 mM ATP. A multiscreen phosphocellulose filter 96-well plate (Millipore, Cat no. MAPHNOB50) was pretreated with 100 μL 0.2M phosphoric acid prior to the addition of […] of the stopped assay mixture. The plate was washed with 5×2004 0.2M phosphoric acid. […]

Serine/threonine-protein kinase ATR, sequence (Q13535 whole entry): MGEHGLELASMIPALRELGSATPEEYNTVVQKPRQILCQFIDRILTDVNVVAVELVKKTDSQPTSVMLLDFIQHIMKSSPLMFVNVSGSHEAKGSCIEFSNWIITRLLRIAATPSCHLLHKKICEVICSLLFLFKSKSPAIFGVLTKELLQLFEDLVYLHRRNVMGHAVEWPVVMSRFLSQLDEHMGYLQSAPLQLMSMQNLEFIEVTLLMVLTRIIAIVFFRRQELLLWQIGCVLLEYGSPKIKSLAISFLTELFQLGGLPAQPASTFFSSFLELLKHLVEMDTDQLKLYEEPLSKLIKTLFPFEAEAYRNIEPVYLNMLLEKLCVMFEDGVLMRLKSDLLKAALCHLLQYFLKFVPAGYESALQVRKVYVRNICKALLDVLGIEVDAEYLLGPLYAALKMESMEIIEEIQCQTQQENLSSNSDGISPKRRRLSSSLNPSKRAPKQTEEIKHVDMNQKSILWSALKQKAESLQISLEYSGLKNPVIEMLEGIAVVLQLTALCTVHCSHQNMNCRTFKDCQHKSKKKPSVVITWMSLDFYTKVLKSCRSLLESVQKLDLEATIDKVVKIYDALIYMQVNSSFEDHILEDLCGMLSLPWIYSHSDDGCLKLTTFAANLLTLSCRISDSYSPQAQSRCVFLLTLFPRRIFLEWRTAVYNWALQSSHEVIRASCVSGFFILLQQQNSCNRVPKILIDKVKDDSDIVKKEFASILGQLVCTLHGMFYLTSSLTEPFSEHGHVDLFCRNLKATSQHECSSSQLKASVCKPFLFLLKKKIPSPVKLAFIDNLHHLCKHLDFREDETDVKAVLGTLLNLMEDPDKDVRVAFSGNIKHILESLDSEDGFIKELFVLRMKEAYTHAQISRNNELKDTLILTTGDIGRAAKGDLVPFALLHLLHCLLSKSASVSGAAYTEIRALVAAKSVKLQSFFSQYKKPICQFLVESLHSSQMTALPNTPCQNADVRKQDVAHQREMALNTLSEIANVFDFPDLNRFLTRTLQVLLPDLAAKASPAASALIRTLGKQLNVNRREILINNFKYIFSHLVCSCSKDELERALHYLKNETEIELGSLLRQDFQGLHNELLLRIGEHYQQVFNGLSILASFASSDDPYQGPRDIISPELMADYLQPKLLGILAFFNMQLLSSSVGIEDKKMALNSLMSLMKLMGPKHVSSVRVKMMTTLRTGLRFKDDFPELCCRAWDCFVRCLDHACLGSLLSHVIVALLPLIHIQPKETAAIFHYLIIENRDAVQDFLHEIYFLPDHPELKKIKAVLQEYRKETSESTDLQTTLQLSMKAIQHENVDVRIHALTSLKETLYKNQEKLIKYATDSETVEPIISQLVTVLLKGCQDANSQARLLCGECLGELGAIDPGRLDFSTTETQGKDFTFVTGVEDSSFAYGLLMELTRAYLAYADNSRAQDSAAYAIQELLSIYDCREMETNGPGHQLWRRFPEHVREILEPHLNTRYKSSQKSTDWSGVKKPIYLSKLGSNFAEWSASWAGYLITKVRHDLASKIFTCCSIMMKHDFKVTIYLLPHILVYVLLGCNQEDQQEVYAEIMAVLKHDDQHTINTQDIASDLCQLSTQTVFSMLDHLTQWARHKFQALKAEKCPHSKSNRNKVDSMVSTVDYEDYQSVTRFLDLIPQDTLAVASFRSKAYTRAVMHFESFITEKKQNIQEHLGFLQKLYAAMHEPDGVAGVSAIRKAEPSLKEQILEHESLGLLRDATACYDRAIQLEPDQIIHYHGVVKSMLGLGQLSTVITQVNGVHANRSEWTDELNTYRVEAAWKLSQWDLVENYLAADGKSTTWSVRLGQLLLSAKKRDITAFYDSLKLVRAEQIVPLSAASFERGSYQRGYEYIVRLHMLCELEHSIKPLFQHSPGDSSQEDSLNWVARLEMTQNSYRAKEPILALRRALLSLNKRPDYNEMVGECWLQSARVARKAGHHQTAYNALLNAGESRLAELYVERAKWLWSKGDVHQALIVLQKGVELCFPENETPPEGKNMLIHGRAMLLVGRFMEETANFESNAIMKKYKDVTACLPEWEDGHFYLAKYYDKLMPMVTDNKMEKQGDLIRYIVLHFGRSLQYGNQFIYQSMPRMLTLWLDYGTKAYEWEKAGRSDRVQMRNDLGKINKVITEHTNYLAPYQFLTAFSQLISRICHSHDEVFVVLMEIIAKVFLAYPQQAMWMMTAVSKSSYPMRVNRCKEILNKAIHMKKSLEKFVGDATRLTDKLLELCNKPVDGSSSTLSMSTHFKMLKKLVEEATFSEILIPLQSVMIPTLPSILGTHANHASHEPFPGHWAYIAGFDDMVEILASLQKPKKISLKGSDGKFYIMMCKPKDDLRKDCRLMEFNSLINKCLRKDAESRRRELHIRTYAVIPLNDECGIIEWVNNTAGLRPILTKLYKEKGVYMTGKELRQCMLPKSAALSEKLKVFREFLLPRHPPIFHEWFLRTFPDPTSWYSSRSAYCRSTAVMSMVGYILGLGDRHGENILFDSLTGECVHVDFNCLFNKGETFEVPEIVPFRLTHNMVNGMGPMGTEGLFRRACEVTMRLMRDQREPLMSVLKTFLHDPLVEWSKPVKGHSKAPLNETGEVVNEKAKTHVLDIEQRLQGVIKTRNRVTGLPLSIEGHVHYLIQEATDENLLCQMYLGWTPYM

Ki: in the range around 505 nM
Compound: C[N+]1([O-])CCCC(c2ccncc2NC(=O)c2c(N)nn3cc(F)cnc23)C1 (stereo unspecified) [US11117900, Compound I-C-9]
